From patent US20100324152A1, “USE OF 1,2-DECANEDIOL FOR SEBUM REDUCTION AND COSMETIC AND/OR DERMATOLOGICAL FORMULATIONS COMPRISING 1,2-DECANEDIOL” (priority 2006, published 2010)

Key:
[1] = Dropping point of a model sebum containing 1,2-decanediol (AOCS Cc 18-80/ASTM D 3954); type: physicochemical; conditions: addition of 20 wt. % 1,2-decanediol to model sebum, versus 1,2-decanediol-free model sebum
Source text: To check the extent to which 1,2-decanediol has a sebum-fluidizing property and is therefore capable of reducing the sebum concentration on the skin surface, and in particular in the sebaceous gland follicles, by a physical route, the influence of 1,2-decanediol on the dropping point of a model sebum was first investigated. On the basis of these publications, a model […] was developed which substantially comprises saturated and unsaturated free fatty acids, wax-like substances, triglycerides and cholesterol and, in detail, is composed of the following substances: palmitic acid, oleic acid, stearic acid, squalene, myristyl myristate, cetyl palmitate, tripalmitin, triolein and cholesterol. The exact quantitative composition of the model sebum (contents of the individual substances in per cent by weight; wt. %) can be seen from the following Table 1. [table] To investigate the influence of 1,2-decanediol on the physical properties of the model sebum, 20 wt. % 1,2-decanediol was added to the model sebum. The dropping points of the 1,2-decanediol-free model sebum and the model sebum sample containing 20 wt. % 1,2-decanediol were then determined using the method for dropping point determination according to AOCS Cc 18-80/ASTM D 3954.

P. acnes = conditions: reported in EP 1 598 064 A1; cited from earlier work

In the case of `CCCCCCCCC(O)CO` (centres unmarked) [1,2-decanediol], the “reduction of the dropping point of model sebum” value [1] is given as 12.7 °C and the “antibacterial action in the suspension test” value (P. acnes) is given as “as good as no antibacterial action”.
